From patent US9605064B2, “Methods and compositions for treatment of skin disorders” (AbbVie Biotechnology Ltd, priority 2006, dated 2017)

System: patients with moderate to severe chronic plaque psoriasis
Assay: PASI response, Phase II 12-week placebo-controlled trial with 48-week extension
Assay type: in vivo, human
Settings: for PASI 50 / PASI 90 / PASI 100: after 60 weeks of 40 mg eow; for patients with PASI<50 response, qualified for dosage escalation to weekly: on or after Week 24; for Number of Patients Who Qualified for Dosage Escalation: placebo/adalimumab 40 mg eow (n = 18)
Excerpt: Efficacy outcome measures included PASI and PGA.
The two primary clinical outcome measures used in this study were the psoriasis area and severity index (PASI) and the physician's global assessment (PGA). PASI improvement of greater than or equal to 75% (used as an endpoint in psoriasis clinical trials) at week 12 was the primary efficacy outcome measure for this study. PASI is a composite index indicating severity for three main signs of psoriatic plaques (erythema, scaling, and thickness), weighted by the amount of coverage of these plaques in four main body areas, i.e., head, trunk, upper extremities, and lower extremities. PASI scores, which range from 0-72, with higher scores indicating greater severity, were assessed at screening, baseline, week 1, week 2, week 4, week 8, week 12/early termination, and follow-up.
Skin and safety outcomes were assessed up to Week 60.
Analytical methods included the following: • Analyses of clinical data were performed on a modified intention-to-treat population (ITT). […] Patients whose dosages were increased on or after Week 24 were considered non-responders; • Patients with similar percentage PASI improvement across treatment arms were pooled into four strata: PASI<50, PASI 50-74, PASI 75-99, and PASI 100; and • Week-60 distribution of DLQI scores, mean DLQI scores, and mean change in DLQI from Week 0-60 were calculated within each stratum.
Frequently used as an endpoint in psoriasis clinical trials, the PASI [25] was the primary efficacy outcome in this trial. PASI is a composite index indicating the severity of the three main signs of psoriatic plaques (i.e., erythema, scaling, and thickness) and is weighted by the amount of coverage of these plaques in the four main body areas (head, trunk, upper extremities, and lower extremities). PASI scores range from 0-72, with higher scores indicating greater disease severity. PASI was assessed at screening and baseline, at Weeks 1, 2, 4, 8, and 12/Early Termination, and at the final follow-up visit.
At week 12, placebo patients received an 80-mg loading dose, then 40 mg every other week. […] Patients who receive the rescue therapy were considered non-responders in this analysis.

[1] = Week 60, adalimumab 40 mg weekly, modified ITT, NRI
[2] = Week 60, placebo/adalimumab 40 mg eow (adalimumab from Week 12), modified ITT, NRI
[3] = baseline PASI ≧10 and DLQI >10, 40 mg eow, Week 12
[4] = baseline PASI ≧10 and DLQI >10, 40 mg eow, Week 24
[5] = baseline PASI ≧10 and DLQI >10, 40 mg eow, Week 36
[6] = baseline PASI ≧10 and DLQI >10, 40 mg eow, Week 60
[7] = baseline PASI ≧10 and DLQI >10, 40 mg weekly, Week 12
[8] = baseline PASI ≧10 and DLQI >10, 40 mg weekly, Week 24
[9] = baseline PASI ≧10 and DLQI >10, 40 mg weekly, Week 36
[10] = baseline PASI ≧10 and DLQI >10, 40 mg weekly, Week 60
[11] = baseline PASI ≧10 and DLQI >10, placebo/adalimumab 40 mg eow, Week 24
[12] = baseline PASI ≧10 and DLQI >10, placebo/adalimumab 40 mg eow, Week 36
[13] = baseline PASI ≧10 and DLQI >10, placebo/adalimumab 40 mg eow, Week 60
[14] = dosage escalation group (eow to 40 mg weekly, n = 30), Week 60
[15] = placebo/adalimumab 40 mg eow, Week 60, modified ITT, NRI
[16] = weekly group, week 60, observed analysis

## Adalimumab: a human anti-TNF mAb, described in U.S. Pat. No. 6,090,382 as D2E7 (HUMIRA, Abbott Laboratories)
[1]
  PASI 50 (% patients): 66%
  Percentage of patients who achieved PASI 75: 64%
  Percentage of patients who achieved PASI 90: 48%
Week 60, placebo/adalimumab 40 mg eow (adalimumab from Week 12), NRI
  Percentage of patients who achieved PASI 100: 19%
[2]
  PASI 50 (% patients): 64%
  Percentage of patients who achieved PASI 75: 45%
  Percentage of patients who achieved PASI 90: 40%
[3]
  PASI 75 response rate: 69 % of Patients
  PASI 90 response rate: 39 % of Patients
[4]
  PASI 75 response rate: 77 % of Patients
  PASI 90 response rate: 54 % of Patients
[5]
  PASI 75 response rate: 73 % of Patients
  PASI 90 response rate: 58 % of Patients
[6]
  PASI 75 response rate: 65 % of Patients
  PASI 90 response rate: 42 % of Patients
[7]
  PASI 75 response rate: 74 % of Patients
  PASI 90 response rate: 61 % of Patients
[8]
  PASI 75 response rate: 78 % of Patients
  PASI 90 response rate: 70 % of Patients
[9]
  PASI 75 response rate: 74 % of Patients
  PASI 90 response rate: 65 % of Patients
[10]
  PASI 75 response rate: 65 % of Patients
  PASI 90 response rate: 48 % of Patients
[11]
  PASI 75 response rate: 50 % of Patients
  PASI 90 response rate: 28 % of Patients
[12]
  PASI 75 response rate: 50 % of Patients
  PASI 90 response rate: 50 % of Patients
[13]
  PASI 75 response rate: 44 % of Patients
  PASI 90 response rate: 39 % of Patients
[14]
  PASI 50 response rate: 40%
  PASI 75 response rate: ~20%
  PASI 90 response rate: 0%
Dosage escalation group (eow to 40 mg weekly, n = 30), Week 60, listed as adalimumab
  PASI 75 response rate: 17%
Eow arm, Week 24
  PASI 50 response: 73
No prior use, 40 mg eow, Week 24
  PASI 75 response rate: 65 % Patients
No prior use, 40 mg eow, Week 60
  PASI 75 response rate: 48 % Patients
No prior use, 40 mg weekly, Week 24
  PASI 75 response rate: 76 % Patients
No prior use, 40 mg weekly, Week 60
  PASI 75 response rate: 64 % Patients
No prior use
  PASI 50: 65%
  PASI 90: 30%
  PASI 100: 17%
No prior use, placebo/adalimumab 40 mg eow, Week 24
  PASI 75 response rate: 56 % Patients
No prior use, placebo/adalimumab 40 mg eow, Week 60
  PASI 75 response rate: 40 % Patients
Of the 45 patients in adalimumab eow group
  patients with PASI<50 response, qualified for dosage escalation to weekly: 12 patients
Of the 47 patients in placebo/adalimumab eow group
  patients with PASI<50 response, qualified for dosage escalation to weekly: 18 patients
Original adalimumab 40 mg every other week arm (two out of nine), week 60
  patients with PASI≧75 after dose escalation: 22%
Original placebo/adalimumab 40 mg every other week arm (two out of thirteen), week 60
  patients with PASI≧75 after dose escalation: 15%
Week 24
  Number of Patients Who Qualified for Dosage Escalation: 10
Week 28
  Number of Patients Who Qualified for Dosage Escalation: 2
Week 32
  Number of Patients Who Qualified for Dosage Escalation: 2
Week 44
  Number of Patients Who Qualified for Dosage Escalation: 1
Week 52
  Number of Patients Who Qualified for Dosage Escalation: 3
Week 60
  Number of Patients Who Qualified for Dosage Escalation: 0
placebo/adalimumab 40 mg eow, Week 24, modified ITT, NRI
  Overall PASI 75 response rate: 55 % of Patients
placebo/adalimumab 40 mg eow, Week 36, modified ITT, NRI
  Overall PASI 75 response rate: 62 % of Patients
[15]
  Overall PASI 75 response rate: 45 % of Patients
  PASI 50 response rate: 57 % Patients
  PASI 90 response rate: 40 % Patients
  PASI 100 response rate: 19 % Patients
placebo/eow arm, Week 24
  PASI 50 response: 77
Prior biologic use
  PASI 50: 63%
  PASI 90: 38%
  PASI 100: 13%
Prior biological use, 40 mg eow, Week 24
  PASI 75 response rate: 50 % Patients
Prior biological use, 40 mg eow, Week 60
  PASI 75 response rate: 63 % Patients
Prior biological use, 40 mg weekly, Week 24
  PASI 75 response rate: 67 % Patients
Prior biological use, 40 mg weekly, Week 60
  PASI 75 response rate: 78 % Patients
Prior biological use, placebo/adalimumab 40 mg eow, Week 24
  PASI 75 response rate: 63 % Patients
Prior biological use, placebo/adalimumab 40 mg eow, Week 60
  PASI 75 response rate: 63 % Patients
Prior systemic use, 40 mg eow, Week 24
  PASI 75 response rate: 68 % Patients
Prior systemic use, 40 mg eow, Week 60
  PASI 75 response rate: 68 % Patients
Prior systemic use, 40 mg weekly, Week 24
  PASI 75 response rate: 73 % Patients
Prior systemic use, 40 mg weekly, Week 60
  PASI 75 response rate: 64 % Patients
Prior systemic use
  PASI 50: 68%
  PASI 90: 37%
  PASI 100: 11%
Prior systemic use, placebo/adalimumab 40 mg eow, Week 24
  PASI 75 response rate: 47 % Patients
Prior systemic use, placebo/adalimumab 40 mg eow, Week 60
  PASI 75 response rate: 41 % Patients
Weekly arm, Week 24
  PASI 50 response: 80
[16]
  PASI 75-99 response rate: 38
  PASI 100 response rate: 26
